In US11905537B2, “Bifunction chemical epigenetic modifiers and methods of use” (The University of North Carolina at Chapel Hill, priority 2017, dated 2024):
Several values for one entry are separate records, joined by “and”; a condition that tells them apart may be missing. Equal entries are not always repeated.

How the values were obtained:
Format in all cases: cell-based, human
ASCL1 = assay: Endogenous ASCL1 activation in HEK 293T cells, qRT-PCR; details: 48 hours
Description: (§1) Next, the plasmid-optimized dCas9-CEMa system was adapted to target endogenous mammalian genes. Because an endogenous gene was being targeted rather than hundreds of transiently expressing reporter plasmids, the dCas9 machinery (dCas9-p300, dCas9-FKBPx2 and/or MCP-FKBP) was chosen to transfect HEK 293T cells. After the cells were stably selected for integration of the dCas9- and MCP-expressing plasmids, the gRNAs that were designed to target endogenous genes were transfected. To determine the time point at which to observe more efficient dCas9 regulation by this method, cells expressing dCas9-p300 were transfected with gRNAs for myogenic differentiation (MYOD1), the RNA was extracted and qRT-PCR was performed after 24, 48 and 72 hours post transfection. […]
(§2) RNA extraction: For FIGS. 23 and 26, cells from the 6-well plates were isolated. […] RNA extraction was performed with an RNeasy Plus Mini Kit (Qiagen, 74134) and the relative enrichment of mRNA was quantified with the RNA-to-CTr 1-step kit (Thermo Fisher Scientific, 4389986). […]

CXCR4 = assay: Endogenous CXCR4 activation in HEK 293T cells, qRT-PCR; details: 48 hours
Description: as §1, §2

HEK 293T cells = assay: Cell health by cell density and morphology in the dose curve; details: concentrations of 500 nM and above, data not shown
Method: The dCas9 “SunTag” system was adapted to be compatible with the bifunctional CEMa technology(Tanenbaum, M. E. et al. Cell 159, 635-646 (2014); (Chavez, A. et al. Nat. Methods 13, 563-567 (2016)). Using the improved dCas9-CEMa system (dCas9-FKBPx2, ms2-FKBP, tre3g ×6 gRNA, BFP reporter), the effects of a global epigenetic inhibitor in combination with a gene-specific approach was tested. After the cells were transfected, they were treated with 200 nM of CEM87 and 2.5 μM of Entinostat. BFP expression increased 34-fold compared to unreated cells as measured by flow cytometry. More specifically, A dCas9-SunTagx10 plasmid was used that expresses an array of 10 yeast-specific GCN4 (gene control protein 4) peptides from the C-terminus of the dCas9, and co-transfected with a single chain variable fragment (scFv), (made to be GCN4-specific) fused to FKBP. Theoretically, as many as 10 FKBP molecules per dCas9 would be recruited to the gene of interest, increasing the bifunctional CEMa recruitment power. With the adapted SunTag method and the tre3g ×6 gRNA, 48 hours of 200 nM CEM87 exposure increased expression 16-fold compared to untreated cells (FIG. 24, p<0.001). […] With the improved dCas9 system and the most efficient bifunctional CEMa, CEM87, a dose-curve was performed and the ideal concentration for maximum expression was determined to be 200 nM (FIG. 21D). […]

MYOD1 = assay: Endogenous MYOD1 activation in HEK 293T cells, qRT-PCR; details: 200 nM, 48 hours
Description: as §1, §2

[1] = tested on: BFP reporter gene downstream of a tre3g promoter; assay: BFP reporter activation in HEK 293T cells with dCas9 systems, flow cytometry
Description: To test for changes in gene expression, human embryonic kidney (HEK) 293T cells were transfected with a BFP reporter gene downstream of a tre3g promoter and performed flow cytometry on at least 100,000 cells after co-expressing the gRNA and dCas9 machinery(Ma, D. et al. Nat. Commun. 7, 13056 (2016)). As a benchmark control for gene activation, a dCas9-p300 fusion protein known to increase expression was used (Hilton, I. B. et al., Nat. Biotechnol. 33, 510-517 (2015)). Using a gRNA that targets the tre3g promoter at six interspaced sites, the dCas9-p300 increased BFP expression 14-fold compared to the non-targeting (NT) control gRNA (FIG. 21A, p<0.05). Next, activating the reporter gene with a plasmid expressing dCas9 (N-terminus)-FKBPx2 (C-terminus) was tested using three predicted activating bifunctional CEMs.
Cell culture: Low passage (p30-40) HEK 293T cells were cultured with high-glucose DMEM (Corning, 10-013-CV) supplemented with 10% FBS serum (Atlantic Biologicals, S11550), 10 mM HEPES (Corning, 25-060-Cl), NEAA (Gibco, 11140-050), Pen/Strep, and 55 μM 2-Mercaptoethanol. Cells were passaged every 2-5 days and maintained at 10-90% confluency in an incubator at 37° C. and 5% CO2.
Cell Transfection: For FIG. 21, HEK 293T cells were split into 12-well plates with 100,000 cells per well. The next day, PEI (polyethlenimine, Polysciences #23966-1) transfection was done with 1 μg of DNA, 3 μL of PEI, and 100 μL of Optimem (Gibco, 31985070). For FIGS. 21A, 21B, 22, and 23 we transfected with 0.1 μg BFP reporter; 0.7 μg dCas9-X; 0.2 μg gRNA. For FIG. 19C, FIG. 19D, FIG. 24, and FIG. 24 we transfected with 0.1 μg BFP reporter; 0.5 μg dCas9-X; 0.2 μg scFv-FKBP or ms2-FKBP; 0.2 μg gRNA. Media was change 16 hours after transfection with fresh media, with or without bifunctional CEMa addition. After 48 hours of bifunctional CEMa exposure, cells were isolated for flow cytometry analysis. For FIG. 23, HEK 293T cells were split into 6-well plates with 200,000 cells per well. The next day, PIE transfection was done with 3 μg of DNA, 9 μL of PEI, and 200 μL of Optimem. For FIGS. 23A-C and 26, 3 μg of gRNA was added in equal ratio (if applicable). Media was change 16 hours after transfection with fresh media, with or without bifunctional CEMa addition. After 48 hours of bifunctional CEMa exposure, cells were isolate for RNA extraction.
Flow cytometry: Flow cytometry was performed with the Attune Nxt as previously described (Chiarella, A. M. et al. Biochemistry 57, 2756-2761 (2018)). The data presented represents three separate transfections and significance was determined with the student's t-test.

[2] = dCas9-FKBPx2 (FIG. 21B legend: dCas9-FKBPx1), 200 nM, 48 hours, vs untreated cells
[3] = dCas9-SunTagx10 with scFv-FKBP, tre3g ×6 gRNA, 200 nM, 48 hours, vs untreated

Structure (SMILES) | increase in ASCL1 in NT samples (ASCL1; NT gRNA samples) | increase in ASCL1 mRNA levels (ASCL1; dCas9-FKBPx2 and ms2-FKBP, ASCL1 gRNAs, vs untreated) [fold] | change in CXCR4 expression with NT gRNA (CXCR4; NT gRNA control cells) | increase in CXCR4 expression (CXCR4; dCas9-FKBPx2 and ms2-FKBP, CXCR4 gRNAs, vs untreated) [fold] | cell health (cell density and morphology) (HEK 293T cells) | MYOD1 expression change with NT gRNAs (MYOD1; NT gRNA control cells) | increase in MYOD1 mRNA levels (MYOD1; dCas9-FKBPx2 and ms2-FKBP, MYOD1 gRNAs, vs untreated, normalized to Gapdh) [fold] | increase in BFP expression in combination with HDACi ([1]; 200 nM CEM87 plus 2.5 μM entinostat, dCas9-FKBPx2, ms2-FKBP, vs untreated cells) [fold] | increase in BFP expression [1, 2] | increase in BFP expression ([1]; dCas9-FKBPx2, 6×-tre3g gRNA, 200 nM, 48 hours, vs untreated) [fold] | increase in BFP expression ([1]; dCas9-FKBPx2, ms2-FKBP, tre3g ×6 gRNA, 200 nM, vs untreated cells) [fold] | activation of BFP expression ([1]; dCas9-FKBPx2, multiplex gRNA, 200 nM, 48 hours, vs untreated) [fold] | increase in BFP expression ([1]; dCas9-FKBPx2, single site gRNA in gene body, 200 nM, 48 hours, vs untreated) [fold] | effect on BFP expression with dCas9-HA ([1]; dCas9-HA (no FKBP recruitment site), 6×-tre3g gRNA, 200 nM, 48 hours) | increase in BFP expression [1, 3] [fold] | activation of BFP expression ([1]; dose curve, 10 nM, dCas9-FKBPx2, ms2-FKBP) [fold] | activation of BFP expression ([1]; dose curve, 50 nM, dCas9-FKBPx2, ms2-FKBP) [fold] | ideal concentration for maximum expression ([1]; dose curve, dCas9-FKBPx2, ms2-FKBP) [nM] | increase in BFP expression ([1]; dCas9-FKBPx2, ms2-FKBP, tre3g ×6 gRNA, equivalent concentration, vs cells expressing NT gRNA) [fold]
COc1ccc2c(c1)C(c1ccc(Cl)cc1)=N[C@@H](CC(=O)NCc1cn(CCOCCOCCOCCNC(=O)CCSCCC[C@@H]3/C=C(\C)C[C@H](C)C[C@H](OC)[C@H]4O[C@@](O)(C(=O)C(=O)N5CCCC[C@H]5C(=O)O[C@H](/C(C)=C/[C@@H]5CC[C@@H](O)[C@H](OC)C5)[C@H](C)[C@@H](O)CC3=O)[C@H](C)C[C@@H]4OC)nn1)c1nnc(C)n1-2 [CEM87] | less than 4 fold | 22 | less than 2 fold | 10 | appeared less healthy | no significant changes in expression | 13 | 34 | 7.5 fold and ~7 fold | 5 | 18 | 4 | 2 | did not significantly affect the BFP expression | 16 | 2 | 8 | 200 | –
CO[C@H]1C[C@@H](C)C/C(C)=C/[C@@H](CCCSCCC(=O)NCCOCCOCCOCCn2cc(COc3ccc(CCc4nc5cc(-c6c(C)noc6C)ccc5n4CCN4CCOCC4)cc3F)nn2)C(=O)C[C@H](O)[C@@H](C)[C@@H](/C(C)=C/[C@@H]2CC[C@@H](O)[C@H](OC)C2)OC(=O)[C@@H]2CCCCN2C(=O)C(=O)[C@]2(O)O[C@H]1[C@@H](OC)C[C@H]2C [CEM114] | – | – | – | – | – | – | – | – | 1.6 fold | – | – | – | – | – | 2 | – | – | – | 6
